Data from patent US10188647B2, “Combination therapy using P53 activator and c-Met inhibitor” (Samsung Electronics Co., Ltd., priority 2013, dated 2019).

Key:
[1] = system: MKN45 stomach cancer cell line; assay: MKN45 cell proliferation after sole or combined treatment (CTG); format: cell-based; conditions: 72 hours
Experimental: The effects obtained by the co-administration of L3-1Y antibody that is a c-Met antibody prepared in the above reference example and Nutlin-3a that is a p53 activator, were tested in MKN45 stomach cancer cell line.
In particular, RPMI1640 media (GIBCO) containing 10% FBS were added to a 96-well plate, to which MKN45 stomach cancer cell line (ATCC) was seeded at 10,000 cells/well, and then incubated overnight at 37° C. On the next day, the sole treatment of 0.1 ug/ml of L3-1Y antibody, the sole treatment of 0.5 uM of Nutlin-3a (#N6287, sigma) which is a p53 activator, and the combined treatment of 0.1 ug/ml of L3-1Y antibody and 0.5 uM (micromole) of Nutlin-3a were administered to the incubated cells. After 72 hours post-administration, a CTG solution was added to the wells at 100 ul per well and after 30 min., and cell numbers were counted to measure a cell proliferation level.

[2] = system: MKN45 stomach cancer cell line; assay: Western blot of p53 and p21 expression/accumulation, MKN45 cells; format: cell-based; conditions: 24 hours
Experimental: (§1) The activation of cell signal transduction system after the co-administration of L3-1Y antibody that is a c-Met antibody prepared in the above reference example and Nutlin-3a that is a p53 activator, was tested in MKN45 stomach cancer cell line and Caki-1 cell line.
(§2) Particularly, RPMI1640 (for MKN45 cells) containing 10% FBS, and DMEM (for Caki-1 cells) media (GIBCO) were added to a 96-well plate, to which MKN45 cell line (ATCC) and Caki-1 cell line (both of them were all obtained from ATCC) were each seeded in an amount of […], and then incubated overnight at 37° C. On the next day, the sole treatment of L3-1Y antibody at a concentration of 0.1 ug/ml (MKN45 cells) and 5 ug/ml (Caki-1 cells), […], and the combined treatment of L3-1Y antibody at 0.1 ug/ml (MKN45 cells) and 5 ug/ml ([…], respectively) were administered. After 24 hours post-administration, c-Met inhibition and p53 activation were analyzed by western blot.

Caki-1 cell line [3] = system: Caki-1 cell line; set-up: expression of p21: dose or concentration left out as unconfirmed; conditions: Caki-1 cells, 24 hours, western blot
Experimental: as §1, §2

c-Met = c-Met (Homo sapiens, UniProt P08581); assay: Specificity of expressed scFv to c-Met; format: binding; conditions: expressed scFv product
Caki-1 cell line [4] = assay: Caki-1 cell proliferation (BrdU assay), agonism of L3-1Y antibody; format: cell-based; conditions: sole treatment 10 ug/ml L3-1Y, serum-free, 24 hours
Experimental: The effects obtained by the co-administration of L3-1Y antibody that is a c-Met antibody prepared in the above reference example and Nutlin-3a that is a p53 activator, were tested in Caki-1 cell line.
Particularly, DMEM media (GIBCO) containing 10% FBS were added to a 96-well plate, to which Caki-1 cell line (ATCC) was seeded at 5,000 cells/well, and then incubated overnight at 37° C. On the next day, the media was replaced by serum-free media, which were then incubated for 24 hours. The sole treatment of 10 ug/ml of L3-1Y antibody, and the combined treatment of 0.1 ug/ml of L3-1Y antibody and 5 uM of Nutlin-3a were administered to the incubated cells. After 24 hours post-administration, a BrdU assay was conducted to measure the cell proliferation level.

[5] = sole treatment 0.5 uM Nutlin-3a
[6] = sole treatment 0.5 mM Nutlin-3a

c-Met, sequence (P08581 25-1390): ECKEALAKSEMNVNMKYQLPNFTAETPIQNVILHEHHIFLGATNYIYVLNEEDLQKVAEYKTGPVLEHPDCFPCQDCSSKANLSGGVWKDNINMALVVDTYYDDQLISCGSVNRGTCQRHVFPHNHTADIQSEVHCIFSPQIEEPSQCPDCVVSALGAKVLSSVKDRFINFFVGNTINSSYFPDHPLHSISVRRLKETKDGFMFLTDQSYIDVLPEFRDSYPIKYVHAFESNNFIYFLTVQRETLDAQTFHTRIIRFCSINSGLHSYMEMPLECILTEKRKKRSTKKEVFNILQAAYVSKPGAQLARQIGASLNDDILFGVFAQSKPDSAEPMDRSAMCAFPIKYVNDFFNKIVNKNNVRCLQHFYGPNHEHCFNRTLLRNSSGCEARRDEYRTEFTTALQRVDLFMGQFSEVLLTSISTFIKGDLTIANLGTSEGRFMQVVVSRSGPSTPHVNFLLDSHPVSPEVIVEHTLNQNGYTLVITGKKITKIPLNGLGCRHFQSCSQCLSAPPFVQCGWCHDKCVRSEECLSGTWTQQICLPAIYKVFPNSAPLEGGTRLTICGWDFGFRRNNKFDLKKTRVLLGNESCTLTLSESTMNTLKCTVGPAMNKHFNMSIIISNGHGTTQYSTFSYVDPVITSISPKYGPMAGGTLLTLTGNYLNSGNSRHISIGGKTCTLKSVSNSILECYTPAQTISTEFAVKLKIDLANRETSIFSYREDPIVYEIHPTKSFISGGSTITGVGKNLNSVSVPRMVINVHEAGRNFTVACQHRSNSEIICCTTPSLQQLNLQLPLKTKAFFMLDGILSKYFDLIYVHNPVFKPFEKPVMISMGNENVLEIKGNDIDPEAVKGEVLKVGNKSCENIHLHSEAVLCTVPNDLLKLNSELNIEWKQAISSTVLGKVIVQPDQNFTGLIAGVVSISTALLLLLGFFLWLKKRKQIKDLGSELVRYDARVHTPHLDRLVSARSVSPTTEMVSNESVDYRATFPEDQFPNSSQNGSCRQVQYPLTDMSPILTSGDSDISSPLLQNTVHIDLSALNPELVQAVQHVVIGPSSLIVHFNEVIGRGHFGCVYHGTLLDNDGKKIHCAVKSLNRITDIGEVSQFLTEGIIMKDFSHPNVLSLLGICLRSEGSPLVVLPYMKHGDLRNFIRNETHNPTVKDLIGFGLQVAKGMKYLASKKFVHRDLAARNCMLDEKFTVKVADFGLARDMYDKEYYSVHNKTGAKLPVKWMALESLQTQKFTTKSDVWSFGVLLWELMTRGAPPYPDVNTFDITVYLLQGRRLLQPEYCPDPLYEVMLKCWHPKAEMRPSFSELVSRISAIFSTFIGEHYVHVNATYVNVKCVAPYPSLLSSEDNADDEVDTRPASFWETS

COc1ccc(C2=N[C@@H](c3ccc(Cl)cc3)[C@@H](c3ccc(Cl)cc3)N2C(=O)N2CCNC(=O)C2)c(OC(C)C)c1 [Nutlin-3a]
suppressive effects of cell proliferation [1, 5]: did not show suppressive effects of cell proliferation
expression of p21 [2, 5]: accumulated
p53 accumulation [2, 6]: accumulated
p53 accumulation (Caki-1 cell line [3]; [6]): accumulated
expression of p21 (Caki-1 cell line [3]; sole treatment): accumulated

B1: scFv of huAbF46: scFv with structure VH-linker-VL from heavy and light chain variable regions of huAbF46 antibody (protein)
scFv: EVQLVESGGGLVQPGGSLRLSCAASGFTFTDYYMSWVRQAPGKGLEWLGFIRNKANGYTTEYSASVKGRFTISRDNSKNTLYLQMNSLRAEDTAVYYCARDNWFAYWGQGTLVTVSSGLGGLGGGGSGGGGSGGSSGVGSDIQMTQSPSSLSASVGDRVTITCKSSQSLLASGNQNNYLAWHQQKPGKAPKMLIIWASTRVSGVPSRFSGSGSGTDFTLTISSLQPEDFATYYCQQSYSAPLTFGQGTKVEIKR
specificity to c-Met (c-Met): exhibit specificity to c-Met

B2: L3-1Y: anti c-Met antibody: huAbF46-H4-A1 heavy chain variable region, human IgG2 hinge and constant region, kappa light chain (antibody)
heavy: EVQLVESGGGLVQPGGSLRLSCAASGFTFTDYYMSWVRQAPGKGLEWLGFIRNKANGYTTEYSASVKGRFTISRDNSKNTLYLQMNSLRAEDTAVYYCARDNWFAYWGQGTLVTVSSASTKGPSVFPLAPCSRSTSESTAALGCLVKDYFPEPVTVSWNSGALTSGVHTFPAVLQSSGLYSLSSVVTVPSSNFGTQTYTCNVDHKPSNTKVDKTVERKCCVECPPCPAPPVAGPSVFLFPPKPKDTLMISRTPEVTCVVVDVSHEDPEVQFNWYVDGVEVHNAKTKPREEQFNSTFRVVSVLTVVHQDWLNGKEYKCKVSNKGLPAPIEKTISKTKGQPREPQVYTLPPSREEMTKNQVSLTCLVKGFYPSDIAVEWESNGQPENNYKTTPPMLDSDGSFFLYSKLTVDKSRWQQGNVFSCSVMHEALHNHYTQKSLSLSPGK
light: DIQMTQSPSSLSASVGDRVTITCKSSQSLLASGNQNNYLAWYQQKPGKAPKMLIIWASTRVSGVPSRFSGSGSGTDFTLTISSLQPEDFATYYCQQSYSRPYTFGQGTKVEIKRTVAAPSVFIFPPSDEQLKSGTASVVCLLNNFYPREAKVQWKVDNALQSGNSQESVTEQDSKDSTYSLSSTLTLSKADYEKHKVYACEVTHQGLSSPVTKSFNRGEC
suppressive effects of cell proliferation ([1]; sole treatment 0.1 ug/ml L3-1Y): about 10%
promoted cell proliferation as compared to the media-only control (Caki-1 cell line [4]): ≥ 20%
